ChEMBL document CHEMBL1141785, “Cimipronidine, a cyclic guanidine alkaloid from Cimicifuga racemosa” (J Nat Prod, 2005)
Activity calls are given as the source filed them. No cut-off for these calls is given here.

Biological target: 5-hydroxytryptamine receptor 7 (Homo sapiens) (UniProt P34969)
Assay: Binding affinity to 5HT7 receptor

Chain of 5-hydroxytryptamine receptor 7 (Homo sapiens) (P34969 whole entry): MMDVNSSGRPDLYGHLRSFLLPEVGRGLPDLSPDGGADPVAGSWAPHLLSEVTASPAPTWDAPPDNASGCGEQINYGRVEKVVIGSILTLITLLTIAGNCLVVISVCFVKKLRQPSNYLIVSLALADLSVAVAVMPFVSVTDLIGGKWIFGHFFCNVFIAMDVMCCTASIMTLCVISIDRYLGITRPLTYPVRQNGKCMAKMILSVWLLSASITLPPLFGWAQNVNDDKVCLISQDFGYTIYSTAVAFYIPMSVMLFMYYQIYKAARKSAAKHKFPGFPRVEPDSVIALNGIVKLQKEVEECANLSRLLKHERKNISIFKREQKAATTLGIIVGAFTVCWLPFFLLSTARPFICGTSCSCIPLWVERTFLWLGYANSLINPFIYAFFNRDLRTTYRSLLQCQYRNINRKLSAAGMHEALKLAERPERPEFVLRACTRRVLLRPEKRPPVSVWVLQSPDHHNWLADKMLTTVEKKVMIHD

Activity	SMILES
Active	O=C(/C=C/c1ccc(O)c(O)c1)O[C@H](C(=O)O)[C@](O)(Cc1ccc(O)c(O)c1)C(=O)O
Active	N=C(N)N1CCCC1CC(=O)O (configuration not stated)
